Activity calls are given as the source filed them. The rule behind the calls is not given here.
Assays:
Assay type in all cases: nucleic-acid assay
Nucleic Acid [1] = test: Binding affinity to 21G telomeric DNA assessed as formation of G-quadruplex DNA at 20 uM after 5 mins in KCl-deficient buffer by label-free fluorescence spectroscopy in presence of exonuclase 1
Nucleic Acid [2] = test: Binding affinity to 21G telomeric DNA assessed as formation of G-quadruplex DNA at 20 uM after 5 mins by label-free fluorescence spectroscopy in presence of exonuclase 1 and KCl
Nucleic Acid [3] = test: Binding affinity to 21G telomeric DNA assessed as formation of G-quadruplex DNA at 20 uM by circular dichroism assay in presence of KCl and exonuclase 1
Nucleic Acid [4] = test: Binding affinity to 21G telomeric DNA assessed as formation of G-quadruplex DNA at 20 uM after 5 mins by label-free fluorescence spectroscopy in presence of exonuclase 1 and increasing concentration of KCl
Nucleic Acid [5] = test: Binding affinity to 21G telomeric DNA assessed as formation of G-quadruplex DNA at 20 uM after 5 mins by label-free fluorescence spectroscopy in presence of LiCl and exonulease 1
Nucleic Acid [6] = test: Binding affinity to single stranded DNA20 assessed as formation of G-quadruplex DNA at 20 uM by UV light illumination photographic analysis in presence of exonuclase 1 and KCl
Nucleic Acid [7] = test: Binding affinity to 21G telomeric DNA assessed as formation of c-myc G-quadruplex DNA at 20 uM by UV light illumination photographic analysis in presence of exonuclase 1 and KCl
Nucleic Acid [8] = test: Binding affinity to 21G telomeric DNA assessed as formation of c-kit G-quadruplex DNA at 20 uM by UV light illumination photographic analysis in presence of exonuclase 1 and KCl
Nucleic Acid [9] = test: Binding affinity to 21G telomeric DNA assessed as formation of VEGF G-quadruplex DNA at 20 uM by UV light illumination photographic analysis in presence of exonuclase 1 and KCl
Nucleic Acid [10] = test: Binding affinity to 21G telomeric DNA assessed as formation of d(G4T4g4) quadruplex DNA at 20 uM after 5 mins by label-free fluorescence spectroscopy in presence of exonuclase 1 and Na+ cation
Nucleic Acid [11] = test: Binding affinity to 21G telomeric DNA assessed as formation of d(G4T4g4) quadruplex DNA at 20 uM after 5 mins in Na+ cation-deficient buffer by label-free fluorescence spectroscopy in presence of exonuclase 1
Nucleic Acid [12] = test: Binding affinity to 21G telomeric DNA assessed as formation of G-quadruplex DNA at 20 uM after 45 mins in KCl-deficient buffer by label-free fluorescence spectroscopy in presence of exonuclase 1 and TMPyP4
Nucleic Acid [13] = test: Binding affinity to single stranded DNA20 assessed as formation of G-quadruplex DNA at 20 uM after 45 mins in KCl-deficient buffer by label-free fluorescence spectroscopy in presence of exonuclase 1 and TMPyP4
Nucleic Acid [14] = test: Binding affinity to 21G telomeric DNA assessed as formation of G-quadruplex DNA at 20 uM after 45 mins by label-free fluorescence spectroscopy in presence of exonuclase 1, Li+ cation and TMPyP4
Nucleic Acid [15] = test: Binding affinity to 21G telomeric DNA assessed as formation of G-quadruplex DNA at 20 uM after 45 mins by label-free fluorescence spectroscopy in presence of exonuclase 1, KCl and TMPyP4
Nucleic Acid [16] = test: Binding affinity to 21G telomeric DNA assessed as formation of G-quadruplex DNA at 20 uM by UV light illumination photographic analysis in presence of exonuclase 1 and bis-(benzimidazole)aryl
Nucleic Acid [17] = test: Binding affinity to single stranded DNA23 assessed as formation of G-quadruplex DNA at 20 uM by circular dichroism assay in presence of sodium cation and exonuclase 1
Nucleic Acid [18] = test: Binding affinity to single stranded DNA20 assessed as formation of G-quadruplex DNA at 20 uM by UV light illumination photographic analysis in presence of exonuclase 1 and bis-(benzimidazole)aryl
Nucleic Acid [19] = test: Binding affinity to 21G telomeric DNA assessed as formation of G-quadruplex DNA at 20 uM by circular dichroism assay in presence of exonuclase 1 and bis-(benzimidazole)aryl
Nucleic Acid [20] = test: Binding affinity to single stranded DNA20 assessed as formation of G-quadruplex DNA at 20 uM by circular dichroism assay in presence of exonuclase 1 and bis-(benzimidazole)aryl
Nucleic Acid [21] = test: Binding affinity to single stranded DNA20 assessed as formation of G-quadruplex DNA at 20 uM by UV light illumination photographic analysis in presence of exonuclase 1 and sodium cation
Nucleic Acid [22] = test: Binding affinity to single stranded DNA20 assessed as formation of G-quadruplex DNA at 20 uM by UV light illumination photographic analysis in presence of exonuclase 1 and lithium cation
Nucleic Acid [23] = test: Binding affinity to single stranded DNA18 assessed as formation of G-quadruplex DNA at 20 uM by UV light illumination photographic analysis in presence of exonuclase 1 and KCl
Nucleic Acid [24] = test: Binding affinity to single stranded DNA18 assessed as formation of G-quadruplex DNA at 20 uM by UV light illumination photographic analysis in presence of exonuclase 1 and sodium cation
Nucleic Acid [25] = test: Binding affinity to single stranded DNA18 assessed as formation of G-quadruplex DNA at 20 uM by UV light illumination photographic analysis in presence of exonuclase 1 and lithium cation
Nucleic Acid [26] = test: Binding affinity to single stranded DNA23 assessed as formation of G-quadruplex DNA at 20 uM by UV light illumination photographic analysis in presence of exonuclase 1 and sodium cation
Nucleic Acid [27] = test: Binding affinity to single stranded DNA23 assessed as formation of G-quadruplex DNA at 20 uM by UV light illumination photographic analysis in presence of exonuclase 1 and KCl
Nucleic Acid [28] = test: Binding affinity to single stranded DNA23 assessed as formation of G-quadruplex DNA at 20 uM by UV light illumination photographic analysis in presence of exonuclase 1 and lithium cation
Nucleic Acid [29] = test: Binding affinity to single stranded DNA18 assessed as formation of G-quadruplex DNA at 20 uM by circular dichroism assay in presence of KCl and exonuclase 1
Nucleic Acid [30] = test: Binding affinity to single stranded DNA18 assessed as formation of G-quadruplex DNA at 20 uM by circular dichroism assay in presence of lithium cation and exonuclase 1
Nucleic Acid [31] = test: Binding affinity to single stranded DNA18 assessed as formation of G-quadruplex DNA at 20 uM by circular dichroism assay in presence of sodium cation and exonuclase 1
Nucleic Acid [32] = test: Binding affinity to single stranded DNA20 assessed as formation of G-quadruplex DNA at 20 uM by circular dichroism assay in presence of KCl and exonuclase 1
Nucleic Acid [33] = test: Binding affinity to single stranded DNA20 assessed as formation of G-quadruplex DNA at 20 uM by circular dichroism assay in presence of lithium cation and exonuclase 1
Nucleic Acid [34] = test: Binding affinity to single stranded DNA20 assessed as formation of G-quadruplex DNA at 20 uM by circular dichroism assay in presence of sodium cation and exonuclase 1
Nucleic Acid [35] = test: Binding affinity to single stranded DNA23 assessed as formation of G-quadruplex DNA at 20 uM by circular dichroism assay in presence of KCl and exonuclase 1
Nucleic Acid [36] = test: Binding affinity to single stranded DNA23 assessed as formation of G-quadruplex DNA at 20 uM by circular dichroism assay in presence of lithium cation and exonuclase 1

Activity (Nucleic Acid [1]): inactive | Activity (Nucleic Acid [2]): Active | Activity (Nucleic Acid [3]): Active | Activity (Nucleic Acid [4]): Active | Activity (Nucleic Acid [5]): inactive | Activity (Nucleic Acid [6]): inactive | Activity (Nucleic Acid [7]): Active | Activity (Nucleic Acid [8]): Active | Activity (Nucleic Acid [9]): Active | Activity (Nucleic Acid [10]): Active | Activity (Nucleic Acid [11]): inactive | Activity (Nucleic Acid [12]): inactive | Activity (Nucleic Acid [13]): inactive | Activity (Nucleic Acid [14]): inactive | Activity (Nucleic Acid [15]): Active | Activity (Nucleic Acid [16]): Active | Activity (Nucleic Acid [17]): inactive | Activity (Nucleic Acid [18]): inactive | Activity (Nucleic Acid [19]): Active | Activity (Nucleic Acid [20]): inactive | Activity (Nucleic Acid [21]): inactive | Activity (Nucleic Acid [22]): inactive | Activity (Nucleic Acid [23]): inactive | Activity (Nucleic Acid [24]): inactive | Activity (Nucleic Acid [25]): inactive | Activity (Nucleic Acid [26]): inactive | Activity (Nucleic Acid [27]): inactive | Activity (Nucleic Acid [28]): inactive | Activity (Nucleic Acid [29]): inactive | Activity (Nucleic Acid [30]): inactive | Activity (Nucleic Acid [31]): inactive | Activity (Nucleic Acid [32]): inactive | Activity (Nucleic Acid [33]): inactive | Activity (Nucleic Acid [34]): inactive | Activity (Nucleic Acid [35]): inactive | Activity (Nucleic Acid [36]): inactive
Structure (SMILES): C[N+](C)(C)CCC[Si]1(C)C(c2ccccc2)=C(c2ccccc2)C(c2ccccc2)=C1c1ccccc1
